Values quoted from earlier work in patent publication US20110305654A1, “ANHYDROUS PETROLEUM JELLY/ELASTOMER-FREE DEPIGMENTING COMPOSITIONS COMPRISING A SOLUBILIZED PHENOLIC COMPOUND” (Galderma Research & Development, priority 2008, published 2011).
Like-named read-outs stand apart in the source and are kept apart here.

In the case of `Oc1ccc(O)cc1` [hydroquinone], the Irritation (10% concentrations) is given as “relatively high”, the Irritation (concentration of 2%) is given as “virtually nonexistent” and the Irritation (preparations with a 5% dose) is given as “reduces greatly”.
